# Test results as given in US20050027015A1 (priority 2001, published 2005).
# Legend:
# black & white dairy cows = experiment: Experiment 3: three-stage feeding trial, black & white dairy cows; type: in vivo; settings: control group, 40 g per cow every other day, versus 20 g daily (2.89 vs 2.73 wt %)
# Excerpt: Thirty-two black & white dairy cows were used in the experiment and were randomly divided into four groups, namely test Groups I to III, and a control group. Each group had eight cows. […] There were three stages in the experiment. In the first stage of the experiment, the feed for the test Groups I to III of cows was mixed with the composition such that each cow in the three test groups was fed with 20 g, 30 g and 40 g of the composition respectively daily. No cysteamine-containing composition was mixed in the feed for the control group of cows. The first stage of the experiment lasted for thirty-seven days and was preceded by a three-day adaptation period. During the second stage of the experiment, the composition was not added to the feed for the three test groups of cows. However, each cow in the control group was fed with 20 g of the composition daily via its feed. The second stage of the experiment lasted for seven days. During the third stage of the experiment, the three test groups of cows were fed with the feed mixed with the composition such that 20 g of the composition was taken by each cow daily. Each cow in the control group was fed with 40 g of the composition every other day via the feed. The third stage of the experiment lasted for seven days. The daily milk yield, milk fat content, milk protein content and somatic cells in milk were measured and recorded. […]
# animals = settings: ingesting cysteamine directly; cited from earlier work
# [1] = exposed to air or at an elevated temperature; cited from earlier work
# somatostain (SS) = settings: pigs, poultry, fowls, goats, rabbits and fish; cited from earlier work
smiles,measurement,setting,value
NCCS [cysteamine],increase of milk protein content,black & white dairy cows,5.86%
same,gastro side effects,animals,will cause undesirable gastro side effects
same,oxidation,[1],readily oxidized
same,effect on somatostain (SS),somatostain (SS),can deplete somatostain (SS)
